Data set [1] relates to BV-2. Nature of the data set: Cytotoxicity against mouse BV2 cells assessed as cell survival by MTT assay. It is filed as cell-based. (Tetrazolium assays rely on reduction of a dye to a coloured formazan, in cell work by metabolically active cells.)
For data set [2], the system named is BV-2. Description: Inhibition of LPS-induced NO production in mouse BV2 cells after 20 hrs by Griess assay. It is filed as functional, cell-based. The note with it: BV-2, 20 h. In general terms: The Griess reaction detects nitrite, a stable product of nitric oxide.

What is called IC50 is the concentration that gives 50% inhibition. Read a high IC50 as lower potency.

Each structure is given as a SMILES string.

As for `CC(C)(O)c1ccc(CO)c(O[C@@H]2O[C@H](CO)[C@@H](O)[C@H](O)[C@H]2O)c1`, in data set [1], the Activity result is “Non-Toxic”. In data set [2], the IC50 came out at 14.1 µM.

Regarding `CC1=C2C[C@H]([C@@](C)(O)CO)CC[C@@]2(C)[C@H](O)CC1=O`, the Activity entry in data set [1] is “Non-Toxic”. Besides, the IC50 in data set [2] turned out to be 6.8 µM.

As for `CSC(=N)N.O=S(=O)(O)O`, the Activity entry in data set [1] is recorded as “Non-Toxic”. In data set [2], this compound gave an IC50 of 2.5 µM.

Consider `Cc1ccc([C@@H](C)CO)cc1O`, for which, in data set [1], the Activity result is “Non-Toxic”. This compound also registered an IC50 in data set [2] of 17.8 µM.

Regarding `CC(C)(O)c1ccc(CO)c(O)c1`, in data set [1], the Activity result was “Non-Toxic”. Further, the IC50 in data set [2] is 15.2 µM.
